Measurements taken from patent US11534457B2, “Use of dextran sulfate” (priority 2017, dated 2022).

Tested on: severe traumatic brain injury (sTBI)
Experiment: sTBI in rats, brain gene expression arrays and pathway analysis (Example 9)
Format: in vivo, Male Wistar rats
Parameters: key to z score, canonical pathway Dendritic Cell Maturation / z score, canonical pathway Adrenomedullin Signaling pathway / z score, canonical pathway Endothelin-1 Signaling / effect on canonical pathway Adrenomedullin Signaling pathway / effect on canonical pathway Endothelin-1 Signaling / effect on canonical pathway Dendritic Cell Maturation / Ingenuity canonical pathway Adrenomedullin signaling pathway, z score / Ingenuity canonical pathway FLT3 Signaling in Hematopoietic Progenitor Cells, z score / Ingenuity canonical pathway Opioid Signaling Pathway, z score / Ingenuity canonical pathway VDR/RXR Activation, z score / Ingenuity canonical pathway Neuropathic Pain Signaling In Dorsal Horn Neurons, z score / Ingenuity canonical pathway STAT3 Pathway, z score / Ingenuity canonical pathway IL-1 Signaling, z score / Ingenuity canonical pathway IL-6 Signaling, z score / Ingenuity canonical pathway NF-κB Signaling, z score / Ingenuity canonical pathway Role of NFAT in Cardiac Hypertrophy, z score / Ingenuity canonical pathway PPARα/RXRα Activation, z score: *: ambiguous effect
Details: TBI + 5 mg/kg LMW-DS, 7 days after TBI
Method: The experimental protocol used in this study was approved by the Ethical Committee of the Catholic University of Rome, according to international standards and guidelines for animal care. Male Wistar rats of 300-350 g body weight were fed with standard laboratory diet and water ad libitum in a controlled environment. As the anesthetic mixture, the animals received 35 mg/kg b.w. ketamine and 0.25 mg/kg body weight midazolam by i.p. injection. Severe traumatic brain injury (sTBI) was induced by dropping a 450 g weight from 2 m height on to the rat head that had been protected by a metal disk previously fixed on the skull, according to the “weight drop” impact acceleration model (Marmarou et al., A new model of diffuse brain injury in rats. Part I: Pathophysiology and biomechanics. J Neurosurg. 1994; 80: 291-300). […] At the end of each period of treatment, rats were anesthetized again and then immediately sacrificed.
LMW-DS (Tikomed AB) was provided at a stock concentration of 20 mg/ml and was kept in a temperature-monitored refrigerator at 4° C. LMW-DS aliquots were diluted to the appropriate dosing concentration in sterile saline prior to delivery of a single subcutaneous injection.
Three doses of LMW-DS were administered subcutaneously 30 minutes post-TBI. The animals were sacrificed at 2 days post-TBI. The animals were divided into the following subgroups:
Three doses of LMW-DS were administered subcutaneously 30 minutes post-TBI. The animals were sacrificed at 7 days post-TBI. The animals were divided into the following subgroups:
An in vivo craniectomy was performed on all animals during anesthesia. After carefully removing the rat's skull, the brain was exposed and removed with a surgical spatula and quickly dropped in RNALater and preserved at 4° C. for further processing.
RNA extraction and array processing was carried out by SourceBioscience. The arrays used were the Agilent Rat expression arrays.
Statistical analysis was carried out using the Metaboanalyst software package. Gene expression changes of 10% with a p<0.05 were regarded as significant.
Pathway analysis of the differentially regulated genes was carried out using the Ingenuity pathway analysis package. The analysis was performed with special reference to pathways and molecular processes and diseases associated with neurodegenerative disease, including dementia, Alzheimer's disease, ALS, TBI and stroke, and with scarring and fibrosis, including glaucoma and normal pressure hydrocephalus (NPH) after subarachnoid haemorrhage.

low molecular weight dextran sulfate [LMW-DS]
z score: Cellular homeostasis: 1.615 | z score: Chemotaxis: 1.873 | z score: Concentration of lipid: −0.575 | z score: Development of body axis: 1.213 | z score: Development of body trunk: 1.09 | z score: Development of carcinoma: 0.152 | z score: Development of connective tissue cells: 1.638 | z score: Development of epithelial tissue: 0.262 | z score: Development of genitourinary system: −0.336 | z score: Development of head: 1.213 | z score: Development of neurons: 1.106 | z score: Development of sensory organ: 0.669 | z score: Development of vasculature: 0.295 | z score: Differentiation of bone: 1.012 | z score: Differentiation of bone cells: 0.85 | z score: Differentiation of connective tissue cells: 0.769 | z score: Digestive organ tumor: −1.348 | z score: Digestive system cancer: −1.792 | z score: Endocrine gland tumor: −0.067 | z score: Expression of RNA: 1.797 | z score: Extracranial solid tumor: 0.369 | z score: Failure of kidney: 0.555 | z score: Formation of eye: 1.664 | z score: Gastrointestinal tumor: −1.215 | z score: Genital tumor: 0.305 | z score: Genitourinary carcinoma: 1.131 | z score: Genitourinary tumor: 1.388 | z score: Glucose metabolism disorder: 0.439 | z score: Growth of connective tissue: −0.324 | z score: Growth of epithelial tissue: −1.58 | z score: Growth of tumor: 2.295 | z score: Head and neck cancer: −1.154 | z score: Head and neck tumor: −0.355 | z score: Hematologic cancer: −1.725 | z score: Hematologic cancer of cells: −1.486 | z score: Hematopoietic neoplasm: −1.002 | z score: Intestinal tumor: −1.09 | z score: Invasion of cells: 1.32 | z score: Leukocyte migration: 3.062 | z score: Lymphatic system tumor: −0.956 | z score: Lymphocytic cancer: −1.486 | z score: Lymphocytic neoplasm: −1.486 | z score: Lymphoid cancer: −0.956 | z score: Lymphoma: −1.224 | z score: Lymphoproliferative disorder: −1.727 | z score: Lymphoreticular neoplasm: −1.224 | z score: Malignant genitourinary solid tumor: 0.346 | z score: Malignant solid tumor: 0.423 | z score: Microtubule dynamics: 1.82 | z score: Migration of cells: 2.659 | z score: Migration of endothelial cells: 2.16 | z score: Morbidity or mortality: −2.848 | z score: Necrosis: 0.228 | z score: Necrosis of epithelial tissue: 1.674 | z score: Neoplasia of cells: 0.474 | z score: Neoplasia of leukocytes: −1.486 | z score: Non-hematologic malignant neoplasm: −0.243 | z score: Non-hematological solid tumor: 0.021 | z score: Non-melanoma solid tumor: 0.01 | z score: Obesity: 0.493 | z score: Organismal death: −2.885 | z score: Organization of cytoskeleton: 2.174 | z score: Pelvic tumor: 0.445 | z score: Peripheral vascular disease: 1 | z score: Proliferation of connective tissue cells: −0.747 | z score: Proliferation of epithelial cells: −1.196 | z score: Quantity of cells: 0.634 | z score: Quantity of connective tissue: 0.609 | z score: Renal impairment: 0.555 | z score: Secretion of molecule: 1.386 | z score: Sensory system development: −0.307 | z score: Size of body: 0.748 | z score: Skin lesion: −0.111 | z score: Skin tumor: −2.396 | z score: Solid tumor: 1.29 | z score: Synthesis of lipid: 1.937 | z score: Transcription: 1.317 | z score: Transcription of RNA: 1.221 | z score: Transport of molecule: 1.854 | z score: Tumorigenesis of tissue: −0.832 | z score: Vasculogenesis: 0.507 | Ingenuity canonical pathway Acute Phase Response Signaling, z score (relative to control): 1.89 | Ingenuity canonical pathway Adrenomedullin signaling pathway, z score (relative to control): −0.632 | Ingenuity canonical pathway Cardiac Hypertrophy Signaling, z score (relative to control): 1 | Ingenuity canonical pathway Colorectal Cancer Metastasis Signaling, z score (relative to control): −0.378 | Ingenuity canonical pathway Dendritic Cell Maturation, z score (relative to control): 1.897 | Ingenuity canonical pathway ERK5 Signaling, z score (relative to control): −0.447 | Ingenuity canonical pathway ERK/MAPK Signaling, z score (relative to control): 1 | Ingenuity canonical pathway Endothelin-1 Signaling, z score (relative to control): 1.633 | Ingenuity canonical pathway Fcγ Receptor-mediated Phagocytosis in Macrophages and Monocytes, z score (relative to control): 2.236 | Ingenuity canonical pathway GNRH Signaling, z score (relative to control): 2 | Ingenuity canonical pathway HMGB1 Signaling, z score (relative to control): 1.134 | Ingenuity canonical pathway IL-1 Signaling, z score (relative to control): 1 | Ingenuity canonical pathway IL-6 Signaling, z score (relative to control): 1 | Ingenuity canonical pathway IL-8 Signaling, z score (relative to control): 2.646 | Ingenuity canonical pathway ILK Signaling, z score (relative to control): 1.89 | Ingenuity canonical pathway Leukocyte Extravasation Signaling, z score (relative to control): 1.342 | Ingenuity canonical pathway NF-κB Signaling, z score (relative to control): * | Ingenuity canonical pathway Neuroinflammation Signaling Pathway, z score (relative to control): 1.941 | Ingenuity canonical pathway Opioid Signaling Pathway, z score (relative to control): * | Ingenuity canonical pathway Osteoarthritis Pathway, z score (relative to control): −1 | Ingenuity canonical pathway PI3K Signaling in B Lymphocytes, z score (relative to control): 1.89 | Ingenuity canonical pathway PKCθ Signaling in T Lymphocytes, z score (relative to control): 2 | Ingenuity canonical pathway PPAR Signaling, z score (relative to control): −1.342
